The target in assay [1] is T1, autotaxin (ATX) (Homo sapiens, UniProt Q13822).
T1 construct: gene ENPP2; human recombinant ATX (hATX)
Nature of the assay: biochemical. More on the design: Inhibition of hydrolysis of fluorogenic lysophospholipid substrate FS-3 by recombinant human autotaxin, fluorescence read-out. The settings on record: read-out: % inhibition in ATX assay at 10 µM. The method, then:
Human recombinant ATX (hATX) was purified as previously described. The enzymatic activity of ATX was assessed by measuring the hydrolysis of the synthetic lipid-like FRET-based substrate FS-3 from Echelon Biosciences. Compounds predicted to have potential inhibitory effects through molecular docking were initially screened at a concentration of 10 μM. The reaction mixtures were prepared in 60 μL volumes and loaded into triplicate wells of black-wall 96-well plates. The assay buffer consisted of 50 mM Tris, 140 mM NaCl, 5 mM KCl, 1 mM CaCl2, 1 mM MgCl2, and 10 μM BSA, with the pH adjusted to 8.0. Each assay contained 4 nM ATX and 1 μM FS-3. The test compounds were diluted in an assay buffer and tested in technical triplicates. […] Fluorescence readings were taken at 2 min intervals over 1 h using excitation and emission wavelengths of 485 and 538 nm. Fluorescence data were collected as relative fluorescence units (RFUs) and averaged for the triplicate samples. A compound was considered an experimentally validated hit if it caused more than 50% inhibition of FS-3 hydrolysis at 10 µM concentration. For dose–response studies, nonlinear regression analysis was performed using GraphPad Prism (GraphPad Software, version 10.0.2 (232), San Diego, CA, USA). A variable four-parameter slope model was applied to fit the data, allowing for determining the Hill slope and interpolation of the IC50 ± SD. Fluorescence measurements were conducted using the CLARIOstar Plus plate reader from BMG Labtech (BMG Labtech, Ortenberg, Baden-Württemberg, Germany). Inhibition assays targeting the ATX-mediated hydrolysis of FS-3 were performed with 45 selected compounds, each at a fixed concentration of 10 μM. Compounds were classified as experimentally validated hits if they achieved more than 50% inhibition of the hydrolysis of the model lysophospholipase D substrate FS-3. From this initial screening, only one compound, ATX-1d, met this criterion (Supplementary Information, Table S1). ATX-1d was then subjected to a dose–response assay to determine its IC50 value (Figure 4). […] BMP-22, a previously validated inhibitor of ATX, was used as a control. The second replicate is shown in the Supplementary Information, Figure S2.

The target in assay [2] is T1, autotaxin (ATX). As to the kind of experiment: FS-3 fluorogenic substrate hydrolysis, dose-response with purified recombinant ATX ([…]). In kind it is biochemical.

As a reminder, the inhibition is the relative decrease from the control value, in per cent. What is called IC50 is the midpoint of a concentration-inhibition curve.

For the compound `COC(=O)/C(=C1\C(=O)N(C)C(=O)C1(c1ccccn1)C1CC(=O)N(C)C1=O)c1ccc(C(C)(C)C)cc1` (centres unmarked) [ATX-1a], on autotaxin (ATX) [1], the inhibition at 10 µM is 42.5%.
The same measure, in the same setting: the value for `CCN1C(=O)CC(C2(c3ccccn3)C(=O)N(CC)C(=O)/C2=C(\C(=O)OC)c2ccccc2)C1=O` (centres unmarked) [ATX-1b] was 3.59%; that for `CCOC(=O)/C(=C1\C(=O)N(C)C(=O)C1(c1ccccn1)C1CC(=O)N(C)C1=O)c1ccc(C)cc1` (centres unmarked) [ATX-1f] was -0.36%; that for `CCN1C(=O)CC(C2(c3ccccn3)C(=O)N(CC)C(=O)/C2=C(\C(=O)OC)c2cccc(OC)c2)C1=O` (centres unmarked) [ATX-1h] was 7.6%.
For `CCN1C(=O)CC(C2(c3ccccn3)C(=O)N(CC)C(=O)/C2=C(\C(=O)OC)c2ccc(F)cc2)C1=O` (centres unmarked) [ATX-1i], the inhibition at 10 µM at autotaxin (ATX) [1] was found to be 10%.
Same read-out and setting: the same measure for `CCC1=N[C@](C(=O)OC)(c2ccc(Br)cc2)[C@@H]2C(=O)N(C)C(=O)C12` (some centres unmarked) [ATX-2a]: 19%; for `CCC1=N[C@](C(=O)OC)(c2ccc(Br)cc2)[C@@H]2C(=O)N(Cc3ccccc3)C(=O)C12` (some centres unmarked) [ATX-2b]: 24.9%; for `CCC1=N[C@](C(=O)OC)(c2cccc(OC)c2)[C@@H]2C(=O)N(C)C(=O)C12` (some centres unmarked) [ATX-2c]: 13%.
Same read-out and setting: the same measure for `CCN1C(=O)C2C(C)=N[C@](C(=O)OC)(c3cccc(OC)c3)[C@@H]2C1=O` (some centres unmarked) [ATX-2d]: 4.61%; for `CCC1=N[C@](C(=O)OC)(c2ccc(Br)cc2)[C@@H]2C(=O)N(CC)C(=O)C12` (some centres unmarked) [ATX-2e]: 10.1%.
On the same count and under the same terms, the value for `CCC1=N[C@](C(=O)OC)(c2ccccc2)[C@@H]2C(=O)N(Cc3ccccc3)C(=O)C12` (some centres unmarked) [ATX-2g] was 3.38%.
`COC(=O)C1(c2ccc(Cl)cc2)OC(c2ccc(F)cc2F)C2C(=O)N(c3ccccc3)C(=O)C21` (centres unmarked) [ATX-3c]: at autotaxin (ATX) [1], the inhibition at 10 µM is -35.9%.
The same measure, in the same setting: the value for `COC(=O)C1(c2ccc(Cl)cc2)OC(c2cccc(OC)c2)C2C(=O)N(c3ccccc3)C(=O)C21` (centres unmarked) [ATX-3f] was 5.8%; that for `COC(=O)C1(c2ccccc2)OC(c2cccc(OC)c2)C2C(=O)N(c3ccccc3)C(=O)C21` (centres unmarked) [ATX-3g] was -30.1%; that for `CCN1C(=O)C2C(c3cccc(F)c3)OC(C(=O)OC)(c3ccc(C(C)(C)C)cc3)C2C1=O` (centres unmarked) [ATX-3h] was -5.76%.
The same measure, in the same setting: the value for `COC(=O)C1(c2ccccc2)OC(c2cccc(F)c2)C2C(=O)N(c3ccccc3)C(=O)C21` (centres unmarked) [ATX-3i] was -37.4%; that for `COC(=O)C1(c2cccc(OC)c2)OC(c2cccc(Cl)c2)C2C(=O)N(Cc3ccccc3)C(=O)C21` (centres unmarked) [ATX-3j] was 16.2%; that for `COC(=O)C(OCCCCOC1=CC(=O)CC(C)(C)C1)c1ccc(Br)cc1` (centres unmarked) [ATX-4a] was 18.7%.
The same measure, in the same setting: the value for `COC(=O)C(OCCCCOC1=CC(=O)CC(C)(C)C1)c1cccc(OC)c1` (centres unmarked) [ATX-4b] was 12.6%.
Take `COC(=O)C(OCCCCOC1=CC(=O)CC(C)(C)C1)c1ccc(C(C)(C)C)cc1` (centres unmarked) [ATX-4c]: the inhibition at 10 µM on autotaxin (ATX) [1] was -19.6%.
For the compound `Cc1ccccc1C(OCCCCOC1=CC(=O)CC(C)(C)C1)C(=O)OCc1ccccc1` (centres unmarked) [ATX-4e], the inhibition at 10 µM on autotaxin (ATX) [1] turned out to be 33.6%.
On to `COC(=O)C(OCCCCOC1=CC(=O)CC(C)(C)C1)c1cccc(Cl)c1` (centres unmarked) [ATX-4f], for which, at autotaxin (ATX) [1], the inhibition at 10 µM is 40.7%.
As to `COC(=O)C(OCCCCOC1=CC(=O)CC(C)(C)C1)c1ccccc1` (centres unmarked) [ATX-4g], the inhibition at 10 µM at autotaxin (ATX) [1] was 32.6%.
On the same count and under the same terms, the value for `COC(=O)C(OCCCCOC1=CC(=O)CC(C)(C)C1)c1cccc(C(F)(F)F)c1` (centres unmarked) [ATX-4i] was 15.2%.
Same read-out and setting: the value for `COC(=O)C(OCCCCOC1=CC(=O)CC(C)(C)C1)c1cccc(F)c1` (centres unmarked) [ATX-4j] was 41.4%; that for `CCOC(=O)C1C(C(=O)OCC)C12C(=O)N(C(C)=O)c1ccccc12` (centres unmarked) [ATX-5c] was -4.52%; that for `CCOC(=O)C1C(C(=O)OCC)C12C(=O)N(C(=O)OC(C)(C)C)c1ccc(Br)cc12` (centres unmarked) [ATX-5g] was -0.48%.
Same read-out and setting: the same measure for `CCOC(=O)C1C(C(=O)OCC)C12C(=O)N(C(C)=O)c1ccc(C)cc12` (centres unmarked) [ATX-5j]: -10.2%.
As to `CCCCCCCCCCCCCCCc1ccc(CP(=O)(O)O)cc1` [BMP-22, reference compound], the IC50 at autotaxin (ATX) [2] turned out to be 200 ± 100 nM.

These data come from article PMC11434342, “Novel Autotaxin Inhibitor ATX-1d Significantly Enhances Potency of Paclitaxel—An In Silico and In Vitro Study” (Molecules, 2024).
